These results are taken from patent EP4768484A1, “HETEROCYCLIC FUSED RING COMPOUND, AND COMPOSITION AND USE THEREOF” (Shenzhen TargetRx, Inc., priority 2023, dated 2025).

Structures are written as SMILES.

Holding throughout (type): cell-based
The subject of one assay is K562 cells. The assay is described as follows: Cell growth inhibitory activity assay (CellTiter-Glo), K562 cells. As to conditions: Homo sapiens, 72 h, CTG cell viability. On the procedure:
(§1) In this assay, the Celltiter-Glo (CTG) kit provided by Promega was used, and it is a homogeneous cell viability assay method. The cell viability of cultured cells was measured by quantifying ATP. K562 cells were purchased from Nanjing Kebai, product number CBP60529; Ba/F3 parental cells were purchased from RIKEN BRC, product number RCB0805; other cells containing BCR-ABL1 WT, BCR-ABL1 T315I, BCR-ABL1 T315M, BCR-ABL1 Y253H/E255K, BCR-ABL1 E255V/T3151, BCR-ABL1 A424T, BCR-ABL1 A337V, BCR-ABL1 P465S, BCR-ABL1 V468F, and BCR-ABL1 I502L were all monoclonal engineered cell lines obtained by transducting Ba/F3 parental cells with the lentivirus plasmids containing WT or corresponding mutated BCR-ABL1.
(§2) The steps of cell viability assay are as follows: • a) Cells in logarithmic growth phase were collected. Cell suspension was prepared and the cells were counted. Concentration of the cells was calculated. • b) The cell suspension was diluted to the required concentration and then added to the middle wells of a 96-well plate, and PBS was added to the edge wells. The wells with no cells and only culture medium were used as blank controls. • c) In addition to the cell plate used for compound analysis, another 96-well plate was prepared as a T0 plate, and 3-6 blank wells and 3-6 cell wells were added. The next day, CTG was used to test the cell viability as the T0 viability value of the cells. • d) The cell plate was incubated at 37 °C in a 5% CO2 incubator overnight. • e) The next day, each concentration of a compound subjected to a gradient dilution was added, and the cell plate was incubated at 37 °C in a 5% CO2 incubator for 72 h. The wells with no compound and only 0.5% DMSO were used as positive controls for cell growth. • f) CTG reagent (CellTiter-Glo kit) was added according to the manufacturer's instructions to test the cell viability value. • g) The plate was read using Biotek cytation3.0 microplate reader and the data were exported. • h) IC50 was calculated using GraphPad Prism 7.0 software.
(§3) The IC50 (half-maximal inhibitory concentration) of the compound was obtained using the following nonlinear fitting formula: Y = Bottom + (Top−Bottom)/(1+10^(∧)((LogIC50−X)*HillSlope)) [formula] • X: Log value of the compound concentration • Y: Inhibition rate (% inhibition) • Top: Maximum response • Bottom: Baseline response • HillSlope: Slope of the curve
(§4) The formula for calculating cell inhibition rate (inhibition rate %) was: [formula]

The target in another assay is T1, Ba/F3 BCR-ABL1 WT (Homo sapiens, UniProt P00519+P11274).
T1 construct: BCR (N-terminal fusion partner of the oncoprotein); expressed in transfected cells; host or cells: Ba/F3 (lentiviral transduction, monoclonal line)
The experiment in a line: Cell growth inhibitory activity assay (CellTiter-Glo), Ba/F3 BCR-ABL1 WT cells. As to conditions: 72 h, CTG cell viability. On the procedure: as §1, §2, §3, §4

For the next assay, the target named is T2, Ba/F3 BCR-ABL1 T315I (Homo sapiens, UniProt P00519+P11274, T315I).
T2 construct: BCR (N-terminal fusion partner of the oncoprotein); expressed in transfected cells; host or cells: Ba/F3 (lentiviral transduction, monoclonal line)
The assay is described as follows: Cell growth inhibitory activity assay (CellTiter-Glo), Ba/F3 BCR-ABL1 T315I cells. As to conditions: 72 h, CTG cell viability. On the procedure:
as §1, §2, §3, §4

A further assay has as its system Ba/F3 parental cells. The experiment in a line: Cell growth inhibitory activity assay (CellTiter-Glo), Ba/F3 parental cells. The following applies: Mus musculus, BaF3, 72 h, CTG cell viability, read-out: IC50 Ba/F3 BCR-ABL1 Parental. As to the method:
as §1, §2, §3, §4

For `CC(=O)NC1CCC2c3cc(C(=O)Nc4ccc(OC(F)(F)Cl)cc4)cc(-c4cnccn4)c3N(C(C)C)C12` (racemic) [T-12, 3-acetamido-N-(4-(chlorodifluoromethoxy)phenyl)-4-isopropyl-5-(pyrazin-2-yl)-1,2,3,3a,4,8b-hexahydrocyclopenta[b]indole-7-carboxamide], the IC50 is 5 to 50 nM in the assay with K562 cells, 5 to 50 nM on Ba/F3 BCR-ABL1 WT, 50 to 1000 nM against Ba/F3 BCR-ABL1 T315I and above 1000 nM in the assay with Ba/F3 parental cells.

With `O=C(Nc1ccc(OC(F)(F)Cl)cc1)c1cnc(N2CC[C@@H](F)C2)c(-c2cnc3c(c2)-c2n[nH]cc2C3)c1` [T-1, (R)-N-(4-(chlorodifluoromethoxy)phenyl)-5-(2,4-dihydropyrazolo[3',4':3,4]cyclopenta[1,2-b]pyridin-7-yl)-6-(3-fluoropyrrolidin-1-yl)nicotinamide], the IC50 with K562 cells was at most 5 nM; against Ba/F3 BCR-ABL1 WT, at most 5 nM; against Ba/F3 BCR-ABL1 T315I it was at most 5 nM; in the assay on Ba/F3 parental cells it was above 1000 nM.

Consider `O=C(Nc1ccc(OC(F)(F)Cl)cc1)c1cnc(N2CC[C@@H](F)C2)c(-c2cnc3c(c2)-c2nn(-c4ncccn4)cc2C3)c1` [T-5, (R)-N-(4-(chlorodifluoromethoxy)phenyl)-6-(3-fluoropvrrolidin-1-yl)-5-(2-(pyrimidin-2-yl)-2,4-dihydropyrazolo[3',4':3,4]cyclopenta[1,2-b]pyridin-7-yl)nicotinamide], for which the IC50 in the assay on K562 cells is at most 5 nM; on Ba/F3 BCR-ABL1 WT, at most 5 nM; against Ba/F3 BCR-ABL1 T315I, at most 5 nM; with Ba/F3 parental cells, above 1000 nM.

With `O=C(Nc1ccc(OC(F)(F)Cl)cc1)c1cnc(N2CC[C@@H](F)C2)c(-c2cnc3c(c2)-c2nn(-c4ncc(F)cn4)cc2C3)c1` [T-6-A, (R)-N-(4-(chlorodifluoromethoxy)phenyl)-5-(2-(5-fluoropyrimidin-2-yl)-2,4-dihydropyrazolo[3',4':3,4]cyclopenta[1,2-b]pyridin-7-yl)-6-(3-fluoropyrrolidin-1-yl)nicotinamide], the IC50 in the assay with K562 cells is at most 5 nM; against Ba/F3 BCR-ABL1 WT it was at most 5 nM; against Ba/F3 BCR-ABL1 T315I it was at most 5 nM; in the assay with Ba/F3 parental cells, above 1000 nM.

With `O=C(Nc1ccc(OC(F)(F)Cl)cc1)c1cnc(N2CC[C@@H](F)C2)c(-c2cnc3c(c2)-c2c(cnn2-c2ncc(F)cn2)C3)c1` [T-6-B, (R)-N-(4-(chlorodifluoromethoxy)phenyl)-5-(1-(5-fluoropyrimidin-2-yl)-1,4-dihydropyrazolo[3',4':3,4]cyclopenta[1,2-b]pyridin-7-yl)-6-(3-fluoropyrrolidin-1-yl)nicotinamide], the IC50 was at most 5 nM with K562 cells, at most 5 nM on Ba/F3 BCR-ABL1 WT, 5 to 50 nM against Ba/F3 BCR-ABL1 T315I and above 1000 nM with Ba/F3 parental cells.

As to `C[C@@H]1COCc2nc3cc(C(=O)Nc4ccc(OC(F)(F)Cl)cc4)cc(-c4cnc5c(c4)-c4nn(C(F)F)cc4C5)c3n21` [T-51, (R)-N-(4-(chlorodifluoromethoxy)phenyl)-6-(2-(difluoromethyl)-2,4-dihydropyrazolo[3',4':3,4]cyclopenta[1,2-b]pyridin-7-yl)-4-methyl-3,4-dihydro-1H-benzo[4,5]imidazo[2,1-c][1,4]oxazine-8-carboxamide], the IC50 in the assay on K562 cells is at most 5 nM; on Ba/F3 BCR-ABL1 WT, 5 to 50 nM; with Ba/F3 parental cells it was above 1000 nM.

As for `[2H]C1([2H])c2cn(-c3ncccn3)nc2-c2cc(-c3cc(C(=O)Nc4ccc(OC(F)(F)Cl)cc4)cc4nc5n(c34)[C@H](C)COC5)cnc21` [T-105, (R)-N-(4-(chlorodifluoromethoxy)phenyl)-4-methyl-6-(2-(pyrimidin-2-yl)-2,4-dihydropyrazolo[3',4':3,4]cyclopenta[1,2-b]pyridin-7-yl-4,4-d2)-3,4-dihydro-1H-benzo[4,5]imidazo[2,1-c][1,4]oxazine-8-carboxamide], the IC50 in the assay with K562 cells, at Ba/F3 BCR-ABL1 WT and on Ba/F3 BCR-ABL1 T315I was at most 5 nM throughout.

With `C[C@@H]1COCc2nc3cc(C(=O)Nc4ccc(OC(F)(F)Cl)cc4)cc(-c4cnc5c(c4)-c4nn(-c6ncccn6)cc4C5O)c3n21` (stereo partly drawn) [T-106, (4R)-N-(4-(chlorodifluoromethoxy)phenyl)-6-(4-hydroxy-2-(pyrimidin-2-yl)-2,4-dihydropyrazolo[3',4':3,4]cyclopenta[1,2-b]pyridin-7-yl)-4-methyl-3,4-dihydro-1H-benzo[4,5]imidazo[2,1-c][1,4]oxazine-8-carboxamide], the IC50 with K562 cells, at Ba/F3 BCR-ABL1 WT and against Ba/F3 BCR-ABL1 T315I was at most 5 nM in each case.

Regarding `C[C@@H]1COCc2nc3cc(C(=O)Nc4ccc(OC(F)(F)Cl)cc4)cc(-c4cnc5c(c4)-c4nn(-c6ncccn6)cc4C5F)c3n21` (stereo partly drawn) [T-107, (4R)-N-(4-(chlorodifluoromethoxy)phenyl)-6-(4-fluoro-2-(pyrimidin-2-yl)-2,4-dihydropyrazolo[3',4':3,4]cyclopenta[1,2-b]pyridin-7-yl)-4-methyl-3,4-dihydro-1H-benzo[4,5]imidazo[2,1-c][1,4]oxazine-8-carboxamide], the IC50 with K562 cells, against Ba/F3 BCR-ABL1 WT and on Ba/F3 BCR-ABL1 T315I was at most 5 nM each time.

With `Cn1ccc(-c2ccnc(-n3cc4c(n3)-c3cc(-c5cc(C(=O)Nc6ccc(OC(F)(F)Cl)cc6)cc6c5C5(CCCCC5)C(=O)N6)cnc3C4)n2)n1` [T-138, N-(4-(chlorodifluoromethoxy)phenyl)-4'-(2-(4-(1-methyl-1H-pyrazol-3-yl)pyrimidin-2-yl)-2,4-dihydropyrazolo[3',4':3,4]cyclopenta[1,2-b]pyridin-7-yl)-2'-oxospiro[cyclohexane-1,3'-indoline]-6'-carboxamide], the IC50 in the assay with K562 cells, against Ba/F3 BCR-ABL1 WT and on Ba/F3 BCR-ABL1 T315I was at most 5 nM throughout.

Consider `O=C(Nc1ccc(OC(F)(F)Cl)cc1)c1cc2c(c(-c3cnc4c(c3)-c3nn(-c5nccc(-c6ccc(F)nc6)n5)cc3C4)c1)C1(CCCCC1)C(=O)N2` [T-139, N-(4-(chlorodifluoromethoxy)phenyl)-4'-(2-(4-(6-fluoropyridin-3-yl)pyrimidin-2-yl)-2,4-dihydropyrazolo[3',4':3,4]cyclopenta[1,2-b]pyridin-7-yl)-2'-oxospiro[cyclohexane-1,3'-indoline]-6'-carboxamide], for which the IC50 with K562 cells, against Ba/F3 BCR-ABL1 WT and against Ba/F3 BCR-ABL1 T315I was at most 5 nM throughout.

Consider `O=C(Nc1ccc(OC(F)(F)Cl)cc1)c1cc2c(c(-c3cnc4c(c3)-c3nn(-c5nccc(-c6cncc(F)c6)n5)cc3C4)c1)C1(CCCCC1)C(=O)N2` [T-140, N-(4-(chlorodifluoromethoxy)phenyl)-4'-(2-(4-(5-fluoropyridin-3-yl)pyrimidin-2-yl)-2,4-dihydropyrazolo[3',4':3,4]cyclopenta[1,2-b]pyridin-7-yl)-2'-oxospiro[cyclohexane-1,3'-indoline]-6'-carboxamide], for which the IC50 with K562 cells, at Ba/F3 BCR-ABL1 WT and at Ba/F3 BCR-ABL1 T315I was at most 5 nM throughout.

For the compound `O=C(Nc1ccc(OC(F)(F)Cl)cc1)c1cnc(N2CC[C@@H](F)C2)c(-c2cnc3c(c2)-c2nn(-c4nccc(-c5ccc(F)nc5)n4)cc2C3)c1` [T-141, (R)-N-(4-(chlorodifluoromethoxy)phenyl)-5-(2-(4-(6-fluoropyridin-3-yl)pyrimidin-2-yl)-2,4-dihydropyrazolo[3',4':3,4]cyclopenta[1,2-b]pyridin-7-yl)-6-(3--fluoropyrrolidin-1-yl)nicotinamide], the IC50 in the assay on K562 cells, against Ba/F3 BCR-ABL1 WT and against Ba/F3 BCR-ABL1 T315I was at most 5 nM throughout.

Take `O=C(Nc1ccc(OC(F)(F)Cl)cc1)c1cnc(N2CC[C@@H](F)C2)c(-c2cnc3c(c2)-c2nn(-c4nccc(-c5cncc(F)c5)n4)cc2C3)c1` [T-142, (R)-N-(4-(chlorodifluoromethoxy)phenyl)-5-(2-(4-(5-fluoropyridin-3-yl)pyrimidin-2-yl)-2,4-dihydropyrazolo[3',4':3,4]cyclopenta[1,2-b]pyridin-7-yl)-6-(3-fluoropyrrolidin-1-yl)nicotinamide]: the IC50 in the assay with K562 cells, at Ba/F3 BCR-ABL1 WT and on Ba/F3 BCR-ABL1 T315I was at most 5 nM throughout.
